From patent US20200108070A2, “INHIBITORS OF FIBROBLAST GROWTH FACTOR RECEPTOR AND USE THEREOF” (Nanjing TransThera Biosciences Co. Ltd., priority 2016, published 2020)

Key:
[1] = target: FGFR3 (Homo sapiens, UniProt P22607); assay: Enzymatic activity test (LabChip EZ Reader II / Caliper), FGFR3; assay type: biochemical; settings: FGFR3(h), FAM-labelled polypeptide substrate and ATP, 30 min incubation; read-out: Inhibitory activity against FGFR (IC50) FGFR3
Experimental: (§1) Experimental Example 1: Enzymatic Activity Test of the Compounds of the Present Invention
(§2) Test substance: The compounds of the present invention, the structures of which are shown above.
(§3) Test Instrument: The LabChip EZ Reader II drug screening platform.
(§4) 1. Preparation for compound plate a) 96-well plates, 10 dose groups, 3-fold serial dilutions, added DMSO to each well, maximal concentration of 500 μM. b) 384-well plates, diluted with 1× kinase buffer (50 mM HEPES, pH 7.5; 0.0015% Brij-35; 2 mM DTT), each well containing 5× compound dissolved in 5 μL of 10% DMSO. The negative control well was 5 μL of 1× kinase buffer containing 10% DMSO. 2. Experimental procedure
(§5) […] in 1× kinase buffer were reacted with 2.5× enzyme solution at room temperature for 10 min, and then the FAM-labelled polypeptide substrate and ATP were added to initiate reaction. After incubation for 30 min, 25 μL of terminal solution (100 mM HEPES, pH 7.5; 0.015% Brij-35; 0.2% Coating Reagent #3; 50 mM EDTA) was added to terminate the reaction, and the final data were read by Caliper.

[2] = test system: RT112/84; assay: Cellular activity test (Cell titer-Glo), RT112/84; assay type: cell-based; settings: Homo sapiens, RT112/84, bladder cancer cell with abnormal FGFR, 72 h, read-out: Inhibitory activity against cells (IC50) RT112/84
Source text: (§6) Experimental Example 2: Celluar Activity Test of the Compounds of the Present Invention
(§7) Hep3B is a cell with abnormal FGFR in hepatocellular carcinoma RT112/84 is a cell with abnormal FGFR in bladder cancer DMS114 is a cell with abnormal FGFR in small cell lung cancer AN3CA is a cell with abnormal FGFR in endometrial cancer SNU-16 is a cell with abnormal FGFR in gastric cancer
as §2
(§8) Test instrument: The Espire multi-function microplate reader.
(§9) Each cell line was seeded into a 96-well plate, and adherent cultured overnight. Then, the compounds at different concentrations (12 dose groups, 3× DMSO serial dilutions) were added to a final concentration of 0.17-30000 nM, with the final content of DMSO of 5‰. The negative control well was medium containing 5‰ DMSO. After incubation at 37° C., 5% CO2, 95% humidity for 72 h, the cultures would be test. 30 μL of Cell titer-Glo reagent was added to each well and incubated for 30 min at room temperature. The final data were read by Espire microplate reader.

[3] = target: FGFR1 (Homo sapiens, UniProt P11362); assay: Enzymatic activity test (LabChip EZ Reader II / Caliper), FGFR1; assay type: biochemical; settings: FGFR1(h), FAM-labelled polypeptide substrate and ATP, 30 min incubation; read-out: Inhibitory activity against FGFR (IC50) FGFR1
Experimental: as §1, §2, §3, §4, §5

[4] = test system: Hep3B; assay: Cellular activity test (Cell titer-Glo), Hep3B; assay type: cell-based; settings: Homo sapiens, hepatocellular carcinoma cell with abnormal FGFR, 72 h, read-out: Inhibitory activity against cells (IC50) Hep3B
Source text: as §6, §7, §2, §8, §9

[5] = target: FGFR4 (Homo sapiens, UniProt P22455); assay: Enzymatic activity test (LabChip EZ Reader II / Caliper), FGFR4; assay type: biochemical; settings: FGFR4(h), FAM-labelled polypeptide substrate and ATP, 30 min incubation; read-out: Inhibitory activity against FGFR (IC50) FGFR4
Experimental: as §1, §2, §3, §4, §5

[6] = test system: DMS114; assay: Cellular activity test (Cell titer-Glo), DMS114; assay type: cell-based; settings: Homo sapiens, DMS-114, DMS114, small cell lung cancer cell with abnormal FGFR, 72 h, read-out: Inhibitory activity against cells (IC50) DMS114
Source text: as §6, §7, §2, §8, §9

[7] = target: FGFR2 (Homo sapiens, UniProt P21802); assay: Enzymatic activity test (LabChip EZ Reader II / Caliper), FGFR2; assay type: biochemical; settings: FGFR2(h), FAM-labelled polypeptide substrate and ATP, 30 min incubation; read-out: Inhibitory activity against FGFR (IC50) FGFR2
Experimental: as §1, §2, §3, §4, §5

[8] = test system: SNU-16; assay: Cellular activity test (Cell titer-Glo), SNU-16; assay type: cell-based; settings: Homo sapiens, SNU-16, gastric cancer cell with abnormal FGFR, 72 h, read-out: Inhibitory activity against cells (IC50) SNU-16
Source text: as §6, §7, §2, §8, §9

[9] = test system: AN3CA; assay: Cellular activity test (Cell titer-Glo), AN3CA; assay type: cell-based; settings: Homo sapiens, AN3-CA, endometrial cancer cell with abnormal FGFR, 72 h, read-out: Inhibitory activity against cells (IC50) AN3CA
Source text: as §6, §7, §2, §8, §9

Sequence of FGFR2 (P21802 22-821): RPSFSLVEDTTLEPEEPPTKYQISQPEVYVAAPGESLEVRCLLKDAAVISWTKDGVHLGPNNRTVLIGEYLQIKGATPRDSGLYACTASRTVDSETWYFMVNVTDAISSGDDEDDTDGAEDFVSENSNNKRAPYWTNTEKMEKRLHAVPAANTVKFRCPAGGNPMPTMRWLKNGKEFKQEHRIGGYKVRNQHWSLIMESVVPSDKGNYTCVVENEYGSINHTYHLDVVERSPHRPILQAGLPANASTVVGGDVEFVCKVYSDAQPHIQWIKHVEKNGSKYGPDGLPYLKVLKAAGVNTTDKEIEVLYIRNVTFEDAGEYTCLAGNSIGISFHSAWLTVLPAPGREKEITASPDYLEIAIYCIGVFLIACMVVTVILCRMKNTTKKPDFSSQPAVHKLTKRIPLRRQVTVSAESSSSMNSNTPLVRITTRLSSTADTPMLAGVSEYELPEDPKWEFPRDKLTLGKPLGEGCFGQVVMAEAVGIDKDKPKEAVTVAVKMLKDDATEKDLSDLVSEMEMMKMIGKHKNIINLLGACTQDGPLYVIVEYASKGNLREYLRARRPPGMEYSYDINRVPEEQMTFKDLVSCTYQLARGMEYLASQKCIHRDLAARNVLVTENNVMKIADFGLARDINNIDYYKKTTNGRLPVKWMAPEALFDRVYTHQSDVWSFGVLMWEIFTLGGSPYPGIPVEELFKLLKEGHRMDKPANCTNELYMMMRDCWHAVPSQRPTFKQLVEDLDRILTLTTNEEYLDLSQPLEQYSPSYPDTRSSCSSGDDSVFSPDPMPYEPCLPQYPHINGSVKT
Sequence of FGFR1 (P11362 22-822): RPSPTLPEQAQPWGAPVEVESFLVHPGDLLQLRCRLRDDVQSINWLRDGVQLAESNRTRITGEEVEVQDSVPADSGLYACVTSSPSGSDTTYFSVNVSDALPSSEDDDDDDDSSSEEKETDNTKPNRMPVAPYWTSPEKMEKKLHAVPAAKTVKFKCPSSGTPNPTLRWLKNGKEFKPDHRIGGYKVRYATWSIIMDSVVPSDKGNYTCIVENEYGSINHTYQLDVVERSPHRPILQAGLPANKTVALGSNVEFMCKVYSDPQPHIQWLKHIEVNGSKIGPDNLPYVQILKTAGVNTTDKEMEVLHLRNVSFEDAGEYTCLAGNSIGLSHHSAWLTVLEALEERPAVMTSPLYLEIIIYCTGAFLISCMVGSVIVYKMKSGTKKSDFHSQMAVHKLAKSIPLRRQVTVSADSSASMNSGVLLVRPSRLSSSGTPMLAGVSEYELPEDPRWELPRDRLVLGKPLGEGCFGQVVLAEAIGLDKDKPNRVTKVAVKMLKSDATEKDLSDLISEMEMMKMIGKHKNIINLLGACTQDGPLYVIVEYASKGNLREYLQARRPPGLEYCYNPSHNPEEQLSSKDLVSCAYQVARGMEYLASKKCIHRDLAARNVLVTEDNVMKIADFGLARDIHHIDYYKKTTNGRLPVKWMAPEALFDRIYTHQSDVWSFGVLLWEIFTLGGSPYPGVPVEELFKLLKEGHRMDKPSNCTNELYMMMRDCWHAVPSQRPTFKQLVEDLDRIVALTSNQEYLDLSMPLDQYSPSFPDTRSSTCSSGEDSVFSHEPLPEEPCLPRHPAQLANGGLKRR
Sequence of FGFR3 (P22607 23-806): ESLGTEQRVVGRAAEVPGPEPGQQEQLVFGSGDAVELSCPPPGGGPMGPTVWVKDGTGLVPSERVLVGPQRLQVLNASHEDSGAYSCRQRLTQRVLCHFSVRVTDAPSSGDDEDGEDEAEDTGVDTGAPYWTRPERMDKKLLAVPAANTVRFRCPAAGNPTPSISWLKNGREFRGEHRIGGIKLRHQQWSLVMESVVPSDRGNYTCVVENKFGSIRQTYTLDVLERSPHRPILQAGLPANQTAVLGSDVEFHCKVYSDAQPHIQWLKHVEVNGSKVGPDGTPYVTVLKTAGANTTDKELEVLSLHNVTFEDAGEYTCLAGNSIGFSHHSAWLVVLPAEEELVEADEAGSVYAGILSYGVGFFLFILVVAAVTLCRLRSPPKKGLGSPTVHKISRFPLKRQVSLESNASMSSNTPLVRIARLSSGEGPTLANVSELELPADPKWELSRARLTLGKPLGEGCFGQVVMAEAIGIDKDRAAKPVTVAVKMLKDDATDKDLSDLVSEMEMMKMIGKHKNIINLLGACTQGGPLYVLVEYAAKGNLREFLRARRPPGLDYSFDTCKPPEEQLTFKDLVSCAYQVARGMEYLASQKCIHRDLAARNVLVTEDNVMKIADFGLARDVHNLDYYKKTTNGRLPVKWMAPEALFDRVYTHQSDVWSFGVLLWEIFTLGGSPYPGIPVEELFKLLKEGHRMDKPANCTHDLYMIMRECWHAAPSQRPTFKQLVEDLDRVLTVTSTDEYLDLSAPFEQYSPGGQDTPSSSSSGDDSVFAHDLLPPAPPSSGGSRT
Sequence of FGFR4 (P22455 22-802): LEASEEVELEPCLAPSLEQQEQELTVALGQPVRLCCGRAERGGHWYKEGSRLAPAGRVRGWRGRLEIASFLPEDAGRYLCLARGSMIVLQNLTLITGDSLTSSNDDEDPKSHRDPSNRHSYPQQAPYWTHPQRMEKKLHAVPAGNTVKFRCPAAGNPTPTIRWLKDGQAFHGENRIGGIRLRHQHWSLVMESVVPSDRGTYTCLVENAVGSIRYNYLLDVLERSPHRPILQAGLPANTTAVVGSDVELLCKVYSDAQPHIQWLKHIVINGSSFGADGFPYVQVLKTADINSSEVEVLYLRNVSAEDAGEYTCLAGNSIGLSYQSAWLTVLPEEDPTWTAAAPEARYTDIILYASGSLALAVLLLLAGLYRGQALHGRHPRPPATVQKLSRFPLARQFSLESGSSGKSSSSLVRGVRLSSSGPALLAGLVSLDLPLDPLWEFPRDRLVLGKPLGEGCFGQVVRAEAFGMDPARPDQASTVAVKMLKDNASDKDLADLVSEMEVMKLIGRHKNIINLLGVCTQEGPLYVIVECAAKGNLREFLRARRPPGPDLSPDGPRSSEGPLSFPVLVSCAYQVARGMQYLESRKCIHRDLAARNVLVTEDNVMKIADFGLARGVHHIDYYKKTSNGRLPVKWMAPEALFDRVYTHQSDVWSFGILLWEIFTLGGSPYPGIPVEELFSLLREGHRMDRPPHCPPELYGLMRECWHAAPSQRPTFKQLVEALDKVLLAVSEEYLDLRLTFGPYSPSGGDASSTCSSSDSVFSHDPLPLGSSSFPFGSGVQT

Compound | IC50 [1] [nM] | IC50 [3] [nM] | IC50 [5] [nM] | IC50 [7] [nM] | IC50 [2] [nM] | IC50 [4] [nM] | IC50 [6] [nM] | IC50 [8] [nM] | IC50 [9] [nM]
C=CC(=O)N1C[C@@H](Nc2ncc3cc(-c4c(Cl)c(OC)cc(OC)c4Cl)ccc3n2)C[C@@H]1CO [Compound 23] |  |  |  |  | 50 | 26 | 31 | 22 | 86
C=CC(=O)N1CC2(CC(Nc3ncc4cc(-c5c(Cl)c(OC)cc(OC)c5Cl)ccc4n3)C2)C1 [Compound 65, 1-(6-((6-(2,6-dichloro-3,5-dimethoxyphenyl)quinazolin-2-yl)amino)-2-azaspiro[3.3]heptan-2-yl)prop-2-en-1-one] |  |  |  |  | 161 | 66 |  | 92 | 
C=CC(=O)N1C[C@@H](Nc2ncc3cc(-c4c(Cl)c(OC)cc(OC)c4Cl)ccc3n2)C[C@H]1CF [Compound 24, 1-((2S,4S)-4-((6-(2,6-dichloro-3,5-dimethoxyphenyl)quinazolin-2-yl)amino)-2-(fluoromethyl)pyrrolidin-1-yl)prop-2-en-1-one] |  |  |  |  | 153 | 46 |  | 48 | 

Now from value to compound, other results behind:

IC50 [1] [nM] | IC50 [3] [nM] | IC50 [5] [nM] | IC50 [7] [nM] | Compound | IC50 [2] [nM] | IC50 [4] [nM] | IC50 [6] [nM] | IC50 [8] [nM] | IC50 [9] [nM]
34 | 15 | 68 | 15 | C=CC(=O)N1C[C@@H](C)[C@H](Nc2ncc3cc(-c4c(Cl)c(OC)cc(OC)c4Cl)ccc3n2)C1 [Compound 20, 1-((3S,4R)-3-((6-(2,6-dichloro-3,5-dimethoxyphenyl)quinazolin-2-yl)amino)-4-methylpyrrolidin-1-yl)propyl-2-en-1-one] | 77 | 50.2 | 113 |  | 
18 | 5.4 | 175 | 5.5 | C=CC(=O)N1CC[C@H](Nc2ncc3cc(-c4c(Cl)c(OC)cc(OC)c4Cl)ccc3n2)C1 [Compound 5, (S)-1-(3-((6-(2,6-dichloro-3,5-dimethoxyphenyl)quinazolin-2-yl)amino)pyrrolidin-1-yl)propyl-2-en-1-one] | 56 | 153 | 58 |  | 
19 | 4.6 | 101 | 4.4 | C=CC(=O)N1C[C@@H](Nc2ncc3cc(-c4c(Cl)c(OC)cc(OC)c4Cl)ccc3n2)C[C@H]1CO [Compound 22, 1-((2S,4S)-4-((6-(2,6-dichloro-3,5-dimethoxyphenyl)quinazolin-2-yl)amino)-2-(hydroxymethyl)pyrrolidin-1-yl)prop-2-en-1-one] | 40 | 32.2 | 25 | 11 | 59
